Test results from article PMC9496321, “6-Furopyridine Hexamethylene Amiloride Is a Non-Selective P2X7 Receptor Antagonist” (Biomolecules, 2022).
Blank lines part the entries; values can stand above or below the compound they belong to.

Experiments:
[1] = target: T1, mP2X7 (Mus musculus, UniProt Q9Z1M0); assay: ATP-induced ethidium+ uptake in transfected HEK-mP2X7 cells; format: cell-based, murine
T1 construct: expressed in transfected cells; host or cells: HEK293 cells, transient transfection, GFP+ cells gated
T1 sequence (Q9Z1M0 1-595): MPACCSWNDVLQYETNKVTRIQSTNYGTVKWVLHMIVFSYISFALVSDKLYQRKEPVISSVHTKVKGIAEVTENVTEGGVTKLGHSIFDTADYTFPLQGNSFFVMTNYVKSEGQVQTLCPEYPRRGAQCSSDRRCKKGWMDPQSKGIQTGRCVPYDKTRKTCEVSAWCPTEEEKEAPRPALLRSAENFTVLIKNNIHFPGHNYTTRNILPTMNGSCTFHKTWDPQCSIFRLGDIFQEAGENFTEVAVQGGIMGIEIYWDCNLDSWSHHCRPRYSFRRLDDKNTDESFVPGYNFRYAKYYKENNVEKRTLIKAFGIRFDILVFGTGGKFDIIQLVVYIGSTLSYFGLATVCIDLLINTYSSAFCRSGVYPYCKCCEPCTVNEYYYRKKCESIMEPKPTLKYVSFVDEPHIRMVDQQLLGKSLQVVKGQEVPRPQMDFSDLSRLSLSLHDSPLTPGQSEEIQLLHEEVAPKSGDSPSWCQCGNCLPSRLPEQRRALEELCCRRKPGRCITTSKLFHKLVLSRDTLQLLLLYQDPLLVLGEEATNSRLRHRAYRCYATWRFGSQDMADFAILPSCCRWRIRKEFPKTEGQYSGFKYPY
Experimental: (§1) HEK293 cells were plated at 3.5 × 10^5 cells/well in 2 mL of complete DMEM/F12 medium and incubated (37 °C, 95% air/5% CO2, overnight). Cells were transfected with mP2X7-GFP (HEK-mP2X7), cP2X7-GFP (HEK-cP2X7) or hP2X4-EmGFP (HEK-hP2X4) plasmids, or mock transfected with an equivalent volume of sterile Milli-Q water (Merck Millipore, Burlington, NJ, USA), using Lipofectamine 3000 according to the manufacturer’s instructions. Cells were used for assays 48 h post-transfection. To determine transfection efficiency, cells were washed twice with D-PBS and data collected with an LSR Fortessa X-20 flow cytometer (BD Biosciences). The proportion of GFP positive cells was determined using FlowJo software v8.7.1 (BD Biosciences).
(§2) ATP-mediated uptake assays were conducted as described with either ethidium bromide or YO-PRO-1 iodide. Briefly, RPMI8226, HEK-hP2X7, HEK-mP2X7, HEK-cP2X7 or cryopreserved human peripheral blood mononuclear cells (PBMCs) were washed thrice with LDM (300× g, 5 min), resuspended in LDM and 1 × 10^6 cells were added to individual tubes. Cells were pre-incubated in the absence of compound (37 °C, 5 min) or in the presence of compound or vehicle (DMSO) (37 °C, 15 min) as indicated. […] An equal volume of ice-cold Mg^2+ stop solution was added and cells centrifuged (300× g, 5 min). Cells were washed twice in LDM (300× g, 5 min), resuspended and data were collected with an LSR Fortessa X-20 flow cytometer. MFI of ethidium^+ or YO-PRO-1^2+ was determined using FlowJo.

[2] = target: T2, hP2X7 (Homo sapiens, UniProt Q99572); assay: Fura-2AM Ca2+ response assay in HEK-hP2X7 cells; format: cell-based; conditions: for maximum ATP response, Ca2+: increasing ATP; for EC50: EC50 of ATP
T2 construct: expressed in transfected cells; host or cells: HEK293 cells, stably transfected (HEK-hP2X7)
T2 sequence (Q99572 1-595): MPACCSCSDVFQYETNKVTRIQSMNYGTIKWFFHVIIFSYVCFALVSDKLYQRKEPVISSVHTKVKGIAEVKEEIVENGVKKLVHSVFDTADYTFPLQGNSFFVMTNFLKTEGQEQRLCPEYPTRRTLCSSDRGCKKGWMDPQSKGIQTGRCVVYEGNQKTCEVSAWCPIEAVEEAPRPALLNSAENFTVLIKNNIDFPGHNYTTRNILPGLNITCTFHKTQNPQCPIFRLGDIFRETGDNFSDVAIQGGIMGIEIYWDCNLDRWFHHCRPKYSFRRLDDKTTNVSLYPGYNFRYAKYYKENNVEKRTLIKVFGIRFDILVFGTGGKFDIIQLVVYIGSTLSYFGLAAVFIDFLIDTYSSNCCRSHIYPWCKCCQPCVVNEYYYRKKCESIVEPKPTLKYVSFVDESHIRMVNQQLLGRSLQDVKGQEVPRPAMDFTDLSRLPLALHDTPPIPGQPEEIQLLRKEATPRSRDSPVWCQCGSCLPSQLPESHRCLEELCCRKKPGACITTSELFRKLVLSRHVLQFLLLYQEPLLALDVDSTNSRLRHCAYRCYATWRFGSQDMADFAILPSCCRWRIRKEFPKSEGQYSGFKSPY

[3] = target: T3, cP2X7 (Canis lupus familiaris, UniProt B0FLR1); assay: ATP-induced ethidium+ uptake in transfected HEK-cP2X7 cells; format: cell-based, canine
T3 sequence (B0FLR1 1-595): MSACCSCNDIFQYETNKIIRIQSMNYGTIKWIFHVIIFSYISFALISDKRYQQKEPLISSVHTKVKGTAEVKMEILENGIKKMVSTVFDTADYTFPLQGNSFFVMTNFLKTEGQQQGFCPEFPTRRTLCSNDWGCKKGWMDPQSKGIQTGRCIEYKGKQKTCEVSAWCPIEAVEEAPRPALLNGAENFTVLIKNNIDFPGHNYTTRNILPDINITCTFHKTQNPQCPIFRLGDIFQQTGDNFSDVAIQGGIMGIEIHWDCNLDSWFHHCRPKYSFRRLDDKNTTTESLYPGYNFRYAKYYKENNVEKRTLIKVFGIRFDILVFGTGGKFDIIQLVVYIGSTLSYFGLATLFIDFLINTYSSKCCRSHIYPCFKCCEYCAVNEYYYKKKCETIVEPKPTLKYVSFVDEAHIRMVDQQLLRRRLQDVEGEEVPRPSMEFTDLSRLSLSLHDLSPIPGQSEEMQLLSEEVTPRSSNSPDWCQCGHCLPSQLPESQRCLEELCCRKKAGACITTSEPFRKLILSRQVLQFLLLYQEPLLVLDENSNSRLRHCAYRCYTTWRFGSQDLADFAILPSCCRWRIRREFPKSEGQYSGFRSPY
Experimental: as §1, §2

[4] = target: T2, hP2X7; assay: ATP-induced ethidium+ uptake in stably transfected HEK-hP2X7 cells (flow cytometry); format: cell-based; conditions: for maximum ATP response, ethidium+ uptake: increasing ATP; for EC50: EC50 of ATP

blockade of mP2X7-mediated dye uptake ([1]; 100 μM compound, 360 μM ATP): 96%
activity against murine P2X7 relative to hP2X7 and cP2X7 ([1]; comparison of IC50 values): ten-fold less active
IC50 ([1]; read-out: IC50, mP2X7-mediated dye uptake): 23 ± 2.4 µM
maximum ATP response, Ca2+ ([2]; 0.3 μM 6-FPHMA): 54 ± 7%
maximum ATP response, Ca2+ ([2]; 3 μM 6-FPHMA): 43 ± 6%
maximum ATP response, Ca2+ ([2]; 30 μM 6-FPHMA): 5 ± 1%
blockade of hP2X7-mediated Ca2+ responses ([2]; 30 μM compound, 720 μM ATP): 100%
mode of inhibition ([2]; Ca2+ response, HEK-hP2X7 cells): non-competitive
IC50 ([2]; read-out: IC50, hP2X7-mediated Ca2+ responses): 0.46 ± 0.14 µM
IC50 ([3]; read-out: IC50, cP2X7-mediated dye uptake): 1.28 ± 0.47 µM
inhibition at 30 µM ([3]; read-out: blockade of cP2X7-mediated dye uptake): 100%
maximum ATP response, ethidium+ uptake ([4]; 0.3 μM 6-FPHMA): 90 ± 4%
maximum ATP response, ethidium+ uptake ([4]; 3 μM 6-FPHMA): 52 ± 3%
maximum ATP response, ethidium+ uptake ([4]; 30 μM 6-FPHMA): 13 ± 1%
blockade of hP2X7-mediated dye uptake ([4]; 100 μM compound, 450 μM ATP, HEK-hP2X7 cells): 95%
mode of inhibition ([4]; ethidium+ uptake, HEK-hP2X7 cells): non-competitive
IC50 ([4]; read-out: IC50, hP2X7-mediated dye uptake): 1.63 ± 0.42 µM
Compound: N=C(N)NC(=O)c1nc(-c2cc3cnccc3o2)c(N2CCCCCC2)nc1N [6-FPHMA, 6-furopyridine-substituted 5-(N,N-hexamethylene) amiloride]

Compound: Nc1ncnc2c1ncn2[C@@H]1O[C@H](COP(=O)(O)OP(=O)(O)OP(=O)(O)O)[C@@H](O)[C@H]1O [ATP, adenosine 5′-triphosphate]
EC50 ([1]; GFP+ HEK-mP2X7 cells): 364 ± 48 µM
ATP concentration giving maximum response, ethidium+ uptake ([1]; HEK-mP2X7 cells): 2 mM
EC50 ([2]; Ca2+ response, HEK-hP2X7 cells, no antagonist (Figure 2F), AUC 100-180 s): 722 ± 76 µM
EC50 ([2]; Ca2+ response, in presence of 0.3 μM 6-FPHMA): 526 ± 131 µM
EC50 ([2]; Ca2+ response, in presence of 3 μM 6-FPHMA): 857 ± 317 µM
EC50 ([2]; Ca2+ response, in presence of 30 μM 6-FPHMA): 691 ± 151 µM
EC50 ([2]; Ca2+ response, pre-incubated with DMSO vehicle (Figure 2H)): 526 ± 127 µM
EC50 [3]: 424 ± 67 µM
ATP concentration giving maximum response, ethidium+ uptake ([3]; HEK-cP2X7 cells): 2 mM
EC50 ([4]; ethidium+ uptake, HEK-hP2X7 cells, no antagonist (Figure 2C)): 466 ± 17 µM
EC50 ([4]; ethidium+ uptake, in presence of 0.3 μM 6-FPHMA): 464 ± 52 µM
EC50 ([4]; ethidium+ uptake, in presence of 3 μM 6-FPHMA): 517 ± 49 µM
EC50 ([4]; ethidium+ uptake, in presence of 30 μM 6-FPHMA): 557 ± 47 µM
EC50 ([4]; ethidium+ uptake, pre-incubated with DMSO vehicle (Figure 2E)): 419 ± 24 µM
